Test results from ChEMBL document CHEMBL1153597, “A new synthesis of caged GABA compounds for studying GABAA receptors” (Bioorg Med Chem Lett, 2009).
Active and inactive are the calls of the source.

Legend:
Type in all cases: cell-based
Details in all cases: HEK-293T
[1] = molecular target: T1, Gamma-aminobutyric acid receptor subunit alpha-1 (Homo sapiens) (UniProt P14867); assay: Neurotransmitter activity at GABAA alpha1 receptor expressed in HEK293T cells assessed as release of GABA-induced permeability to chloride ions by photolysis technique
T1 sequence (whole entry): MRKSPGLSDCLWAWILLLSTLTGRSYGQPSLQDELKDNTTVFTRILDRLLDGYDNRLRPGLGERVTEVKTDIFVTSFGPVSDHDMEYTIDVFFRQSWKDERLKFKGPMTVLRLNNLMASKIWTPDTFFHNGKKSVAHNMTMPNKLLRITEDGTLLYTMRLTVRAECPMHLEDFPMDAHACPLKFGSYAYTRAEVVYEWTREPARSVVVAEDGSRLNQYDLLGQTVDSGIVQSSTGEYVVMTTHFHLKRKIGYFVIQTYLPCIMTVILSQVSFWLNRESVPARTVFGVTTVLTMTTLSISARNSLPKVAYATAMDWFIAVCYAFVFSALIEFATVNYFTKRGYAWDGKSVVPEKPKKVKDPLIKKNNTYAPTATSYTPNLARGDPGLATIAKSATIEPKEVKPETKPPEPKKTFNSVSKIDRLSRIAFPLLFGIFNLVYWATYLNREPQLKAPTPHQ

[2] = molecular target: T2, Gamma-aminobutyric acid receptor subunit beta-2 (Homo sapiens) (UniProt P47870); assay: Neurotransmitter activity at GABAA beta2 receptor expressed in HEK293T cells assessed as release of GABA-induced permeability to chloride ions by photolysis technique
T2 sequence (whole entry): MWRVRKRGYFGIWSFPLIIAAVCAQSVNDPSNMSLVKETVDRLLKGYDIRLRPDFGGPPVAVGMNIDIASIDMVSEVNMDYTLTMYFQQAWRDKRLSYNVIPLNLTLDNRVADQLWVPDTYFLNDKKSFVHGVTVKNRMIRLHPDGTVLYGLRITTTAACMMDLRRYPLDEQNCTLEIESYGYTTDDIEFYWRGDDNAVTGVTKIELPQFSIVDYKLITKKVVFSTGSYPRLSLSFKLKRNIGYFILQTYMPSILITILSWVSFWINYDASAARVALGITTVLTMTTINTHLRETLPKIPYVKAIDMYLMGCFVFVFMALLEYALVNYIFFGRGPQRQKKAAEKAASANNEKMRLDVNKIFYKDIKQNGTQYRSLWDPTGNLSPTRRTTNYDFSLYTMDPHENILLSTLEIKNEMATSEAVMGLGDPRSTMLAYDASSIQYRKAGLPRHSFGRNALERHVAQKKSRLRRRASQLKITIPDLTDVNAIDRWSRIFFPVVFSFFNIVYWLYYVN

[3] = molecular target: T3, Gamma-aminobutyric acid receptor subunit delta (Homo sapiens) (UniProt O14764); assay: Neurotransmitter activity at GABAA delta receptor expressed in HEK293T cells assessed as release of GABA-induced membrane permeability to chloride ions by photolysis technique
T3 sequence (whole entry): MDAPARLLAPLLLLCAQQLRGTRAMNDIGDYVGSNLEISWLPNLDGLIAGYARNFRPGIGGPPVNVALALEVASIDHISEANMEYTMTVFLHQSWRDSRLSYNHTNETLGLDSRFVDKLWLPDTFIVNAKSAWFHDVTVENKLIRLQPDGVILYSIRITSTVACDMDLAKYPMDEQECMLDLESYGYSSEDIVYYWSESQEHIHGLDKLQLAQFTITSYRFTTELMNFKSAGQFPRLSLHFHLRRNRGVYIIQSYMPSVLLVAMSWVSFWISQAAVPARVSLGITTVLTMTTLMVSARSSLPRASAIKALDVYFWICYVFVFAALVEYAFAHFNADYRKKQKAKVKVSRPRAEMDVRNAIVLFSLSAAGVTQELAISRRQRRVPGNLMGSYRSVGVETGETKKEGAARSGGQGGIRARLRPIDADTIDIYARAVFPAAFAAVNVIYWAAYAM

Measured: Activity

CCOC(=O)CNC(=O)C(OC(=O)CCCN)c1cc(=O)oc2cc(N(CC)CC)ccc12 (stereo not drawn)
active: [1] | [2] | [3]
